Measured values taken from patent US20060165642A1, “Hair treatment compositions” (priority 2002, published 2006).

Assay: cuticle abrasion test
Conditions: for performance in cuticle abrasion test versus comparative Examples: base shampoo containing 0.03M of the compound; for % recovery: freeze-dried cuticle abraded from 4 g hair washed twice with base shampoo containing 0.03M of the compound, lower is better
Method: The compositions were tested in a cuticle abrasion test. Root end hair (as received from the supplier) was pre-cleaned by washing for 1 minute in Composition I followed by copious rinsing in double deionised water. The hair was left to dry naturally over 24 hrs.
For each test, 4 g of hair was washed in 0.4 g of the test composition for 30 seconds, rinsed for 30 seconds, and the washing/rinsing cycle repeated. The hair was left to dry naturally overnight.
The hair was cut into 1 cm lengths, placed in a blender bucket and 200 ml of double de-ionised water was added. The blender was placed on full power for 1 minute. The liquor was decanted off and transferred to a 50 ml centrifuge tube and centrifuged for 10 minutes at 4,300 RPM. The resulting clear liquor was decanted off leaving the cuticle sediment at the bottom of the tube.
The cuticle was transferred from the tube into a beaker with 3×5 ml washes and passed through a series of sieves (425 and 53 microns). The sieves were washed with a further 2×10 ml of water to ensure complete recovery of the cuticle. The sample was made up to 50 ml in a centrifuge tube, centrifuged for 15 minutes and the liquor decanted off. The cuticle was transferred with double deionised water (2×10 ml washes) to a beaker and freeze-dried.
The freeze-dried cuticle was weighed back to determine percentage recovery.

Row | SMILES | performance in cuticle abrasion test versus comparative Examples | % recovery [%]
1 | CC(C)(C)CCO [Compound 1, 3,3-dimethylbutan-1-ol] | perform better than comparative Examples A and B | 0.31
2 | CC(C)(C)C(O)CO (centres unmarked) [Compound 2, 3,3-dimethyl-1,2-butanediol] | perform better than comparative Examples A and B | 0.27
3 | CC(O)CC(C)(C)O (centres unmarked) [Compound B, 2-methyl-2,4 pentanediol, reference compound] | – | 0.50
